Reference: EP0574808A1, “Amidine-biphenyl derivatives, process for their production & medical preparation containing them” (Dr. Karl Thomae GmbH, priority 1992, dated 1993)

Test system: Collagen-induzierte Thrombozytenaggregation
Test: Ex vivo inhibition of collagen-induced platelet aggregation after oral administration (Born and Cross photometric method)
Conditions: oral 3 mg/kg, suspended in Natrosol; Rhesusaffen; Collagen 2 µg/ml in platelet-rich plasma
Source text: Beispielsweise wurden die Verbindungen der allgemeinen Formel I auf ihre biologischen Wirkungen wie folgt untersucht: Die Hemmung der Thrombozytenaggregation nach oraler Gabe der Prüfsubstanz wird ex vivo an Rhesusaffen ermittelt.
Direkt vor der oralen Verabreichung der in Natrosol suspendierten Prüfsubstanz wird den Tieren eine Blutprobe aus der Kubitalvene als Referenzwert entnommen. Zu definierten Zeiten nach der Substanzgabe werden erneut Blutproben gewonnen und wie folgt untersucht.
Das mit 3,14% Natriumcitrat im Volumenverhältnis 1:10 versetzte Vollblut wird mit 200 g für 15 Minuten zentrifugiert. Der Überstand an plättchenreichem Plasma wird vorsichtig abgehoben. Aus dem erythrozytenreichen Sediment wird durch Zentrifugation mit 4000 g für 10 Minuten das plättchenarme Plasma als Überstand gewonnen.
Die mit Collagen (Hormonchemie, München; 2 µg/ml Endkonzentration im plättchenreichen Plasma) ausgelöste Thrombozytenaggregation in diesen ex vivo Proben wird nach der Methode von Born und Cross (J. Physiol. 170, 397 (1964)) photometrisch gemessen. Die nach Collagenstimulation gemessene größte Lichtdurchlässigkeit des plättchenreichen Plasmas wird mit dem Referenzwert verglichen, um die Hemmung der Aggregation zu den verschiedenen Zeitpunkten der Blutentnahme nach Substanzgabe relativ zum Referenzwert zu bestimmen.

For Cl.N=C(N)c1ccc(-c2ccc(C(=O)N3CCC(CC(=O)OC4CCCCC4)CC3)cc2)cc1 [Beispiel 1, 4-Amidino-4'-[4-(cyclohexyloxycarbonylmethyl)-piperidinocarbonyl]-biphenyl-hydrochlorid], which “Dauer der Hemmung der Collagen-induzierten Thrombozytenaggregation ex vivo” value is on record?
The value was > 4 Stunden.
